Data as given in US20230310441A1, “TREATMENT FOR SCHIZOPHRENIA” (TAKEDA PHARMACEUTICAL COMPANY, priority 2020, published 2023).
Entries after “also recorded” stand apart in the source; their conditions may differ. Like-named read-outs stand apart in the source and are kept apart here.

Experiment: Phase 1 FIH study: plasma pharmacokinetics in healthy participants
Assay type: in vivo, human
Settings: for Tmax / Cmax / AUC(0-t) / AUC / Vd/F: human, plasma; for Vd/F: read-out: Vz/F (mean)
Procedure: Part 1 was a double-blind, SRD study in healthy adults, utilizing an alternate panel design (cohorts 1, 2) and sequential panel design (cohorts 3-5). Cohorts 1 and 2 were part of a two-period, alternating-panel, double-blind study of Compound (I) administered as an oral suspension (5 mg, 10 mg, 20 mg, or 40 mg) or matched placebo, with a washout period of at least 7 days between treatment periods. Cohorts 3-5 were part of a sequential-panel, double-blind study to evaluate the SRDs of Compound (I) (80, 120, or 160 mg, respectively) or matched placebo. Although planned, all subsequent doses after the dose of 80 mg were determined based on emerging safety, tolerability, and PK data from the preceding cohorts.
In Part 2, participants received either placebo on all dosing days or a loading dose of Compound (I) on Day 1 and a maintenance dose of half the initial dose on Days 8, 15 and 22, administered as an oral suspension. Baseline measurements were obtained on Day −2, and study-specific measurements were obtained following oral dose administrations on Days 1, 8, 15, and 22.
Part 3 was a randomized, open-label, single-dose, parallel design study to evaluate the bioavailability of a Compound (I) tablet formulation relative to a Compound (I) oral suspension formulation and the effect of food on the PK in healthy participants. The immediate release tablet contained mannitol, microcrystalline cellulose, and other commonly used excipients. Participants were randomized 1:1 to receive a single 40 mg dose of Compound (I) as a tablet after either 10 h overnight fast, or 30 min after beginning ingestion of a high-fat, high-calorie breakfast.
Participants were required to remain in the study unit for an additional 48 h post-dose for safety and PK assessments with follow-up visits on Day 4-5 and on Day 17-21. Blood samples were collected over 96 h post-dose to measure the plasma concentrations of Compound (I).
Plasma and urine concentrations of Compound (I) and urine concentrations of cortisol and 6β-hydroxycortisol were measured by high performance liquid chromatography with tandem mass spectrometry. One 4 mL blood sample was collected per scheduled assessment. For participants receiving placebo, blood samples were analyzed only at pre-dose and around the time Cmax occurred (as emerging from the measurements of the first dose group) to ensure that no additional participants could have been on active treatment. Serial urine samples were collected for Part 1 cohorts 1-5 and Part 2 cohorts 1-4. Urine samples for participants receiving placebo were not analyzed. Urine samples were collected for the determination of cortisol and 6β-hydroxycortisol for Part 2 cohorts 1-4 and for all patients in Part 4. Samples for participants randomized to placebo were analyzed for these parameters.
Pharmacokinetic parameters were determined from the concentration-time profiles for all evaluable participants. Actual sampling times were used in all computations. pharmacokinetic parameters were calculated using non-compartmental analysis using Phoenix WinNonLin v8.0 or SAS v 9.4.

[1] = Part 3, single oral 40 mg tablet
[2] = healthy, oral, 40/20 mg, Day 22, N 6
[3] = healthy, oral, 80/40 mg, Day 22, N 6
[4] = healthy, oral, 120/60 mg, Day 22, N 6
[5] = healthy, oral, 160/80 mg, Day 22, N 6
[6] = po, healthy, oral, 40/20 mg, Day 22, N 6
[7] = po, healthy, oral, 80/40 mg, Day 22, N 6
[8] = po, healthy, oral, 120/60 mg, Day 22, N 6
[9] = po, healthy, oral, 160/80 mg, Day 22, N 6

C[C@H](NC(=O)Cn1nnc2ccccc2c1=O)c1ccc(OC(F)(F)F)cc1 [Compound (I), (S)-2-(4-oxobenzo[d][1,2,3]triazin-3(4H)-yl)-N-(1-(4-(trifluoromethoxy)phenyl)ethyl)acetamide]
mean t1/2z (Part 1 SRD, 20-160 mg dose range): 210 to 296 h
mean t1/2z at steady state (Part 2 MRD): 170 to 302 h
dose proportionality of systemic exposure at steady state (Part 2 MRD, Day 22): increased approximately dose proportionally
ratio for AUC96, tablet under fasted and fed conditions [1]: ~0.942
ratio for Cmax, tablet under fasted and fed conditions [1]: approximately 0.841
food effect on systemic exposure (Part 3, tablet, fasted vs high-fat, high-calorie meal): no meaningful food effect on systemic exposure; also recorded: minimal food effect
steady-state mean t1/2z (healthy participants (comparison for Part 4)): 271 h
CL/F (mean) [2]: 334.6 mL/h
Cav,ss (mean) [2]: 393.8 ng/mL
Ctrough (mean) [2]: 274.2 ng/mL
t1/2z (mean) [2]: 299.5 h
CL/F (mean) [3]: 281.9 mL/h
Cav,ss (mean) [3]: 889.3 ng/mL
Ctrough (mean) [3]: 621.3 ng/mL
t1/2z (mean) [3]: 301.7 h
CL/F (mean) [4]: 299.1 mL/h
Cav,ss (mean) [4]: 1206.6 ng/mL
Ctrough (mean) [4]: 862.5 ng/mL
t1/2z (mean) [4]: 169.7 h
CL/F (mean) [5]: 284.6 mL/h
Cav,ss (mean) [5]: 1751.1 ng/mL
Ctrough (mean) [5]: 1209.0 ng/mL
t1/2z (mean) [5]: 270.8 h
saturation of plasma PK (highest dose level tested): Saturation of plasma PK was observed at 160 mg
Tmax (oral, 40 mg, Part 3, tablet formulation, fasted and fed states, read-out: median tmax): 2 h
Tmax (oral, 120 mg, Part 1 SRD, 120 mg (secondary peak in some participants), read-out: median tmax): 13 h
Tmax (oral, 160 mg, Part 1 SRD, 160 mg (secondary peak in some participants), read-out: median tmax): 13.5 h
Tmax (oral, Part 1 SRD, dose range 5-80 mg, read-out: median tmax): 0.99 to 3 h
Cmax (oral, Part 2 MRD, 40/20 mg, up to 168 h post-dose, read-out: Mean Cmax (SD)): 550 ng/mL
Cmax (oral, Part 2 MRD, 80/40 mg, up to 168 h post-dose, read-out: Mean Cmax (SD)): 880 ng/mL
Cmax (oral, Part 2 MRD, 120/60 mg, up to 168 h post-dose, read-out: Mean Cmax (SD)): 1260 ng/mL
Cmax (oral, Part 2 MRD, 160/80 mg, up to 168 h post-dose, read-out: Mean Cmax (SD)): 1760 ng/mL
Tmax (oral, Part 2 MRD, read-out: median tmax): 1.75 to 3 h
Tmax (oral, healthy participants (comparison for Part 4), read-out: median tmax): 3 h
Cmax (po, 5 mg, Part 1 SRD, Cohort 1, 5 mg oral suspension, fasted, up to 96 h post-dose, read-out: Mean Cmax (SD)): 140 ng/mL
Cmax (po, 10 mg, Part 1 SRD, Cohort 2, 10 mg oral suspension, fasted, up to 96 h post-dose, read-out: Mean Cmax (SD)): 193 ng/mL
Cmax (po, 80 mg, Part 1 SRD, Cohort 3, 80 mg oral suspension, fasted, up to 168 h post-dose, read-out: Mean Cmax (SD)): 910 ng/mL
Cmax (po, 120 mg, Part 1 SRD, Cohort 4, 120 mg oral suspension, fasted, up to 168 h post-dose, read-out: Mean Cmax (SD)): 1200 ng/mL
Cmax (po, 160 mg, Part 1 SRD, Cohort 5, 160 mg oral suspension, fasted, up to 168 h post-dose, read-out: Mean Cmax (SD)): 1120 ng/mL
AUC(0-t) [6]: 191 µg·h/mL
AUC (po, healthy, oral, 40/20 mg, Day 22, N 6, read-out: AUC24 (mean)): 12 µg·h/mL
AUC (po, healthy, oral, 40/20 mg, Day 22, N 6, read-out: AUC96 (mean)): 42.2 µg·h/mL
AUC (po, healthy, oral, 40/20 mg, Day 22, N 6, read-out: AUCτ (mean)): 66.2 µg·h/mL
Cmax (po, healthy, oral, 40/20 mg, Day 22, N 6, read-out: Cmax (mean)): 698 ng/mL
Vd/F [6]: 112 L
Tmax (po, healthy, oral, 40/20 mg, Day 22, N 6, read-out: tmax (median)): 1.75 h
AUC(0-t) [7]: 421 µg·h/mL
AUC (po, healthy, oral, 80/40 mg, Day 22, N 6, read-out: AUC24 (mean)): 24.4 µg·h/mL
AUC (po, healthy, oral, 80/40 mg, Day 22, N 6, read-out: AUC96 (mean)): 92.7 µg·h/mL
AUC (po, healthy, oral, 80/40 mg, Day 22, N 6, read-out: AUCτ (mean)): 149 µg·h/mL
Cmax (po, healthy, oral, 80/40 mg, Day 22, N 6, read-out: Cmax (mean)): 1250 ng/mL
Vd/F [7]: 123 L
Tmax (po, healthy, oral, 80/40 mg, Day 22, N 6, read-out: tmax (median)): 2 h
AUC(0-t) [8]: 407 µg·h/mL
AUC (po, healthy, oral, 120/60 mg, Day 22, N 6, read-out: AUC24 (mean)): 35.9 µg·h/mL
AUC (po, healthy, oral, 120/60 mg, Day 22, N 6, read-out: AUC96 (mean)): 134 µg·h/mL
AUC (po, healthy, oral, 120/60 mg, Day 22, N 6, read-out: AUCτ (mean)): 203 µg·h/mL
Cmax (po, healthy, oral, 120/60 mg, Day 22, N 6, read-out: Cmax (mean)): 1740 ng/mL
Vd/F [8]: 73 L
Tmax (po, healthy, oral, 120/60 mg, Day 22, N 6, read-out: tmax (median)): 3 h
AUC(0-t) [9]: 841 µg·h/mL
AUC (po, healthy, oral, 160/80 mg, Day 22, N 6, read-out: AUC24 (mean)): 47.4 µg·h/mL
AUC (po, healthy, oral, 160/80 mg, Day 22, N 6, read-out: AUC96 (mean)): 181 µg·h/mL
AUC (po, healthy, oral, 160/80 mg, Day 22, N 6, read-out: AUCτ (mean)): 294 µg·h/mL
Cmax (po, healthy, oral, 160/80 mg, Day 22, N 6, read-out: Cmax (mean)): 2410 ng/mL
Vd/F [9]: 103 L
Tmax (po, healthy, oral, 160/80 mg, Day 22, N 6, read-out: tmax (median)): 3 h
Tmax (po, oral suspension (comparison for Part 3), read-out: median tmax): 1.82 h
Tmax (po, single and repeated oral administration, healthy and schizophrenia patients, read-out: tmax): 0.99 to 3 h
absorption (single and repeated oral administration, healthy volunteers and patients with stable schizophrenia): rapidly absorbed
dose proportionality of Cmax and AUC (single oral doses 5-160 mg, healthy): increased less than dose proportionally
